How the values were obtained:
[1] = system: MCF7ADR (adriamycin resistant breast adenocarcinoma); experiment: In vitro growth inhibition screen (sulphorhodamine B), MCF7ADR; assay type: cell-based, human; conditions: MCF7ADR cells, incubated for 48 hours, sulphorhodamine B dye; read-out: GI50 (concentration which inhibits the cell growth by 50%), MCF7ADR Adriamycin Resistant Breast adenocarcinoma
How it was run: (§1)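 SRB assay, 48 h treatment, RPMI 1640 + 10% FCS, 37° C, 5% CO2; dose range ≧100 μM–10 nM in ten-fold steps; OD 490 nm; GI50 derived.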

[2] = system: U251 (human glioblastoma); experiment: In vitro growth inhibition screen (sulphorhodamine B), U251; assay type: cell-based; conditions: U251 cells, incubated for 48 hours, sulphorhodamine B dye; read-out: GI50 (concentration which inhibits the cell growth by 50%), U251 Human glioblastoma astrocytoma
How it was run: as §1

[3] = system: MCF7 (breast adenocarcinoma); experiment: In vitro growth inhibition screen (sulphorhodamine B), MCF7; assay type: cell-based, human; conditions: MCF7 cells, incubated for 48 hours, sulphorhodamine B dye; read-out: GI50 (concentration which inhibits the cell growth by 50%), MCF7 Breast adenocarcinoma
How it was run: as §1

[4] = system: DU145 (prostate carcinoma); experiment: In vitro growth inhibition screen (sulphorhodamine B), DU145; assay type: cell-based, human; conditions: DU145 cells, incubated for 48 hours, sulphorhodamine B dye; read-out: GI50 (concentration which inhibits the cell growth by 50%), DU145 Prostate carcinoma
How it was run: as §1

[5] = system: HT29 (colorectal adenocarcinoma); experiment: In vitro growth inhibition screen (sulphorhodamine B), HT29; assay type: cell-based, human; conditions: HT29 cells, incubated for 48 hours, sulphorhodamine B dye; read-out: GI50 (concentration which inhibits the cell growth by 50%), HT29 Colorectal adenocarcinoma
How it was run: as §1

LOX (melanoma) = experiment: In vitro growth inhibition screen (sulphorhodamine B), LOX; assay type: cell-based, human; conditions: LOX cells, incubated for 48 hours, sulphorhodamine B dye; read-out: GI50 (concentration which inhibits the cell growth by 50%), LOX Melanoma
How it was run: as §1

## CCCN1C(=O)[C@H](OCc2ccccc2)[C@@H](OCc2ccccc2)[C@H](OCc2ccccc2)[C@H]1CNC(=O)CCl [Compound No. 52, 2,3,4-Tri-O-benzyl-6-N-{2-[chloro]-acetyl}-N-propyl-D-gluco-δ-lactam]
[1]
  GI50: 0.8 µM
[2]
  GI50: 2.9 µM
[3]
  GI50: 6 µM
[4]
  GI50: 7.2 µM
[5]
  GI50: 6.8 µM
LOX (melanoma)
  GI50: 0.9 µM

## CCCN1C(=O)[C@H](OCc2ccccc2)[C@@H](OCc2ccccc2)[C@H](OCc2ccccc2)[C@H]1CNC(=O)Nc1ccc(Cl)cc1C(F)(F)F [Compound No. 7, 2,3,4-Tri-O-benzyl-6-N-{[4-chloro-2-trifluoromethylphenyl]aminocarbonylamino}-N-propyl-D-gluco-δ-lactam]
[1]
  GI50: 58.4 µM
[2]
  GI50: 63.5 µM
[3]
  GI50: > 353 µM
[4]
  GI50: > 353 µM
[5]
  GI50: 68.6 µM
LOX (melanoma)
  GI50: 10.8 µM

## CCCN1C(=O)[C@H](O)[C@@H](O)[C@H](O)[C@H]1CNC(=O)Nc1ccc(OC)cc1 [Compound No. 27, 6-N-{[p-Methoxyphenyl]aminocarbonylamino}-N-propyl-D-gluco-δ-lactam]
[1]
  GI50: 481 µM
[2]
  GI50: 323 µM
[3]
  GI50: 214 µM
[4]
  GI50: 413 µM
[5]
  GI50: 232 µM
LOX (melanoma)
  GI50: 193 µM

## C=CCN1C(=O)C(OCc2ccccc2)C(OCc2ccccc2)C(OCc2ccccc2)C1CN1C(=O)CCC1=O [Compound No. 84, N-Allyl-2,3,4-tri-O-benzyl-6-(2,5-diketopyrrolidino)-D-gluco-δ-lactam]
[1]
  GI50: 6.4 µM
[2]
  GI50: 9.3 µM
[3]
  GI50: 5.3 µM
[4]
  GI50: 18.3 µM
[5]
  GI50: 18.7 µM
LOX (melanoma)
  GI50: 5.9 µM

## CCCN1C(=O)[C@H](OC(C)=O)[C@@H](OC(C)=O)[C@H](OC(C)=O)[C@H]1CNC(=O)Nc1ccccc1 [Compound No. 33, 2,3,4-Tri-O-acetyl-6-N-{[phenyl]aminocarbonylamino}-N-propyl-D-gluco-δ-lactam]
[1]
  GI50: 56.8 µM
[2]
  GI50: 47.1 µM
[3]
  GI50: 34.1 µM
[4]
  GI50: 52.7 µM
[5]
  GI50: 24.1 µM
LOX (melanoma)
  GI50: 25.1 µM

## CCCN1C(=O)[C@H](O)[C@@H](O)[C@H](O)[C@H]1CNC(=O)CN1CCN(C)CC1 [Compound No. 68, 6-N-{2-[(N-Methyl)piperazinyl]acetyl}-N-propyl-D-gluco-δ-lactam]
[1]
  GI50: 27.7 µM
[2]
  GI50: 22 µM
[3]
  GI50: 32.4 µM
[4]
  GI50: 39 µM
[5]
  GI50: 14.1 µM
LOX (melanoma)
  GI50: 48.2 µM

## CCCN1C[C@H](OCc2ccccc2)[C@@H](OCc2ccccc2)[C@H](OCc2ccccc2)[C@H]1CNC(=O)Nc1ccc(F)cc1F [Compound No. 37]
[1]
  GI50: 17.3 µM
[2]
  GI50: 15.4 µM
[3]
  GI50: 10.3 µM
[4]
  GI50: 11.1 µM
[5]
  GI50: 2.8 µM
LOX (melanoma)
  GI50: 5.1 µM

## CCCN1C(=O)[C@H](OCc2ccccc2)[C@@H](OCc2ccccc2)[C@H](OCc2ccccc2)[C@H]1CNC(=S)NC(C)C [Compound No. 8, 2,3,4-Tri-O-benzyl-6-N-{[isopropyl]aminothiocarbonylamino}-N-propyl-D-gluco-δ-lactam]
[1]
  GI50: 0.6 µM
[2]
  GI50: 2.5 µM
[3]
  GI50: 1.3 µM
[4]
  GI50: 3.4 µM
[5]
  GI50: 9 µM
LOX (melanoma)
  GI50: 2.2 µM

## CCCN1C(=O)[C@H](OCc2ccccc2)[C@@H](OCc2ccccc2)[C@H](OCc2ccccc2)[C@H]1CNC(=O)N1CCN(c2ccc(F)cc2)CC1 [Compound No. 76, 2,3,4-Tri-O-benzyl-6-N-{4-[4-fluorophenyl]piperazinylcarboxamido}-N-propyl-D-gluco-δ-lactam]
[1]
  GI50: 90.7 µM
[2]
  GI50: 25.7 µM
[3]
  GI50: 38.6 µM
[4]
  GI50: 45.2 µM
[5]
  GI50: 28.6 µM
LOX (melanoma)
  GI50: 40.9 µM

## CCCN1C(=O)[C@H](OCc2ccccc2)[C@@H](OCc2ccccc2)[C@H](OCc2ccccc2)[C@H]1COC(=O)CN1C(=O)CCCC1=O [Compound No. 56, 2,3,4-Tri-O-benzyl-6-{2-[2,6-diketopiperidino]acetyl}-N-propyl-D-gluco-δ-lactam]
[1]
  GI50: 24.5 µM
[2]
  GI50: 40.5 µM
[3]
  GI50: 40.3 µM
[4]
  GI50: 10.7 µM
[5]
  GI50: 22.8 µM
LOX (melanoma)
  GI50: 12 µM

## CCCN1C(=O)[C@H](OCc2ccccc2)[C@@H](OCc2ccccc2)[C@H](OCc2ccccc2)[C@H]1CNC(=O)N1CCN(c2ccc(Cl)cc2)CC1 [Compound No. 75, 2,3,4-Tri-O-benzyl-6-N-{4-[4-chlorophenyl]piperazinylcarboxamido}-N-propyl-D-gluco-δ-lactam]
[1]
  GI50: 11.6 µM
[2]
  GI50: 8.8 µM
[3]
  GI50: 1.6 µM
[4]
  GI50: 25.7 µM
[5]
  GI50: 18.4 µM
LOX (melanoma)
  GI50: 16.9 µM

## CCCN1C(=O)[C@H](OCc2ccccc2)[C@@H](OCc2ccccc2)[C@H](OCc2ccccc2)[C@H]1CNC(=S)Nc1ccc2ccccc2c1 [Compound No. 2, 2,3,4-Tri-O-benzyl-6-N-{[2-naphthyl]aminothiocarbonylamino}-N-propyl-D-gluco-δ-lactam]
[1]
  GI50: 229 µM
[2]
  GI50: 172 µM
[3]
  GI50: 175 µM
[4]
  GI50: 151 µM
[5]
  GI50: 137 µM
LOX (melanoma)
  GI50: 40.9 µM

Source: US20060241114A1, “Derivatives of azasugars as anticancer agents” (priority 2003, published 2006)
